Results taken from ChEMBL document CHEMBL4138146, “A Schmidt rearrangement-mediated synthesis of novel tetrahydro-benzo[1,4]diazepin-5-ones as potential anticancer and antiprotozoal agents” (Eur J Med Chem, 2017).

Each compound was assayed on UO-31 (assay: Growth inhibition of human UO31 cells assessed as cell growth at 10 uM incubated for 48 hrs by sulforhodamine B assay relative to control). Conditions: UO-31, 48 h, read-out: Activity.
Format: functional

Row | SMILES | growth at 10 µM [%]
1 | Cc1cccc2cc(C3CNC(=O)c4ccccc4N3)c(=O)[nH]c12 (stereo not drawn) | 92.8

The compounds below were run on U-251 (assay: Growth inhibition of human U251 cells assessed as cell growth at 10 uM incubated for 48 hrs by sulforhodamine B assay relative to control). Conditions: U-251, 48 h, read-out: Activity.
Format: functional

Row | SMILES | growth at 10 µM [%]
2 | Cc1cccc2cc(C3CNC(=O)c4ccccc4N3)c(=O)[nH]c12 (stereo not drawn) | 94.5

These compounds were tested on CCRF-CEM (assay: Growth inhibition of human CCRF-CEM cells assessed as cell growth at 10 uM incubated for 48 hrs by sulforhodamine B assay relative to control). Conditions: read-out: Activity.
Format: functional

Row | SMILES | growth at 10 µM [%]
3 | Cc1cccc2cc(C3CNC(=O)c4ccccc4N3)c(=O)[nH]c12 (stereo not drawn) | 123

What follows are compounds tested on SF-539 (assay: Growth inhibition of human SF539 cells assessed as cell growth at 10 uM incubated for 48 hrs by sulforhodamine B assay relative to control). Conditions: SF-539, 48 h, read-out: Activity.
Format: functional

Row | SMILES | growth at 10 µM [%]
4 | Cc1cccc2cc(C3CNC(=O)c4ccccc4N3)c(=O)[nH]c12 (stereo not drawn) | 94.9

The compounds below were run on SN12C (assay: Growth inhibition of human SN12C cells assessed as cell growth at 10 uM incubated for 48 hrs by sulforhodamine B assay relative to control). Conditions: read-out: Activity.
Format: functional

Row | SMILES | growth at 10 µM [%]
5 | Cc1cccc2cc(C3CNC(=O)c4ccccc4N3)c(=O)[nH]c12 (stereo not drawn) | 114

The compounds below were run on T47D (assay: Growth inhibition of human T47D cells assessed as cell growth at 10 uM incubated for 48 hrs by sulforhodamine B assay relative to control). Conditions: read-out: Activity.
Format: functional

Row | SMILES | growth at 10 µM [%]
6 | Cc1cccc2cc(C3CNC(=O)c4ccccc4N3)c(=O)[nH]c12 (stereo not drawn) | 93.1

These compounds were tested on A549 (assay: Growth inhibition of human A549/ATCC cells assessed as cell growth at 10 uM incubated for 48 hrs by sulforhodamine B assay relative to control). Conditions: A549, 48 h, read-out: Activity.
Format: functional

Row | SMILES | growth at 10 µM [%]
7 | Cc1cccc2cc(C3CNC(=O)c4ccccc4N3)c(=O)[nH]c12 (stereo not drawn) | 91.7

These compounds were tested on Malme-3M (assay: Growth inhibition of human MALME-3M cells assessed as cell growth at 10 uM incubated for 48 hrs by sulforhodamine B assay relative to control). Conditions: read-out: Activity.
Format: functional

Row | SMILES | growth at 10 µM [%]
8 | Cc1cccc2cc(C3CNC(=O)c4ccccc4N3)c(=O)[nH]c12 (stereo not drawn) | 96

These compounds were tested on OVCAR-3 (assay: Growth inhibition of human OVCAR3 cells assessed as cell growth at 10 uM incubated for 48 hrs by sulforhodamine B assay relative to control). Conditions: OVCAR-3, 48 h, read-out: Activity.
Format: functional

Row | SMILES | growth at 10 µM [%]
9 | Cc1cccc2cc(C3CNC(=O)c4ccccc4N3)c(=O)[nH]c12 (stereo not drawn) | 104

The compounds below were run on A498 (assay: Growth inhibition of human A498 cells assessed as cell growth at 10 uM incubated for 48 hrs by sulforhodamine B assay relative to control). Conditions: A498, 48 h, read-out: Activity.
Format: functional

Row | SMILES | growth at 10 µM [%]
10 | Cc1cccc2cc(C3CNC(=O)c4ccccc4N3)c(=O)[nH]c12 (stereo not drawn) | 103

These compounds were tested on HCT-116 (assay: Growth inhibition of human HCT116 cells assessed as cell growth at 10 uM incubated for 48 hrs by sulforhodamine B assay relative to control). Conditions: HCT-116, 48 h, read-out: Activity.
Format: functional

Row | SMILES | growth at 10 µM [%]
11 | Cc1cccc2cc(C3CNC(=O)c4ccccc4N3)c(=O)[nH]c12 (stereo not drawn) | 95.5

What follows are compounds tested on SW-620 (assay: Growth inhibition of human SW620 cells assessed as cell growth at 10 uM incubated for 48 hrs by sulforhodamine B assay relative to control). Conditions: SW-620, 48 h, read-out: Activity.
Format: functional

Row | SMILES | growth at 10 µM [%]
12 | Cc1cccc2cc(C3CNC(=O)c4ccccc4N3)c(=O)[nH]c12 (stereo not drawn) | 110

What follows are compounds tested on NCI-H522 (assay: Growth inhibition of human NCI-H522 cells assessed as cell growth at 10 uM incubated for 48 hrs by sulforhodamine B assay relative to control). Conditions: NCI-H522, 48 h, read-out: Activity.
Format: functional

Row | SMILES | growth at 10 µM [%]
13 | Cc1cccc2cc(C3CNC(=O)c4ccccc4N3)c(=O)[nH]c12 (stereo not drawn) | 70

What follows are compounds tested on NCI-H226 (assay: Growth inhibition of human NCI-H226 cells assessed as cell growth at 10 uM incubated for 48 hrs by sulforhodamine B assay relative to control). Conditions: NCI-H226, 48 h, read-out: Activity.
Format: functional

Row | SMILES | growth at 10 µM [%]
14 | Cc1cccc2cc(C3CNC(=O)c4ccccc4N3)c(=O)[nH]c12 (stereo not drawn) | 85.6

These compounds were tested on TK-10 (assay: Growth inhibition of human TK10 cells assessed as cell growth at 10 uM incubated for 48 hrs by sulforhodamine B assay relative to control). Conditions: TK-10, 48 h, read-out: Activity.
Format: functional

Row | SMILES | growth at 10 µM [%]
15 | Cc1cccc2cc(C3CNC(=O)c4ccccc4N3)c(=O)[nH]c12 (stereo not drawn) | 94.6

These compounds were tested on NCI-H322M (assay: Growth inhibition of human NCI-H322M cells assessed as cell growth at 10 uM incubated for 48 hrs by sulforhodamine B assay relative to control). Conditions: read-out: Activity.
Format: functional

Row | SMILES | growth at 10 µM [%]
16 | Cc1cccc2cc(C3CNC(=O)c4ccccc4N3)c(=O)[nH]c12 (stereo not drawn) | 92

The compounds below were run on ACHN (assay: Growth inhibition of human ACHN cells assessed as cell growth at 10 uM incubated for 48 hrs by sulforhodamine B assay relative to control). Conditions: read-out: Activity.
Format: functional

Row | SMILES | growth at 10 µM [%]
17 | Cc1cccc2cc(C3CNC(=O)c4ccccc4N3)c(=O)[nH]c12 (stereo not drawn) | 98.6

What follows are compounds tested on RXF 393 (assay: Growth inhibition of human RXF393 cells assessed as cell growth at 10 uM incubated for 48 hrs by sulforhodamine B assay relative to control). Conditions: RXF 393, 48 h, read-out: Activity.
Format: functional

Row | SMILES | growth at 10 µM [%]
18 | Cc1cccc2cc(C3CNC(=O)c4ccccc4N3)c(=O)[nH]c12 (stereo not drawn) | 106

The compounds below were run on KM12 (assay: Growth inhibition of human KM12 cells assessed as cell growth at 10 uM incubated for 48 hrs by sulforhodamine B assay relative to control). Conditions: KM12, 48 h, read-out: Activity.
Format: functional

Row | SMILES | growth at 10 µM [%]
19 | Cc1cccc2cc(C3CNC(=O)c4ccccc4N3)c(=O)[nH]c12 (stereo not drawn) | 99.6

These compounds were tested on OVCAR-5 (assay: Growth inhibition of human OVCAR5 cells assessed as cell growth at 10 uM incubated for 48 hrs by sulforhodamine B assay relative to control). Conditions: OVCAR-5, 48 h, read-out: Activity.
Format: functional

Row | SMILES | growth at 10 µM [%]
20 | Cc1cccc2cc(C3CNC(=O)c4ccccc4N3)c(=O)[nH]c12 (stereo not drawn) | 102

The compounds below were run on NCI/ADR-RES (assay: Growth inhibition of human NCI/ADR-RES cells assessed as cell growth at 10 uM incubated for 48 hrs by sulforhodamine B assay relative to control). Conditions: read-out: Activity.
Format: functional

Row | SMILES | growth at 10 µM [%]
21 | Cc1cccc2cc(C3CNC(=O)c4ccccc4N3)c(=O)[nH]c12 (stereo not drawn) | 103

Each compound was assayed on COLO 205 (assay: Growth inhibition of human COLO205 cells assessed as cell growth at 10 uM incubated for 48 hrs by sulforhodamine B assay relative to control). Conditions: COLO 205, 48 h, read-out: Activity.
Format: functional

Row | SMILES | growth at 10 µM [%]
22 | Cc1cccc2cc(C3CNC(=O)c4ccccc4N3)c(=O)[nH]c12 (stereo not drawn) | 108

Each compound was assayed on SK-MEL-28 (assay: Growth inhibition of human SK-MEL-28 cells assessed as cell growth at 10 uM incubated for 48 hrs by sulforhodamine B assay relative to control). Conditions: SK-MEL-28, 48 h, read-out: Activity.
Format: functional

Row | SMILES | growth at 10 µM [%]
23 | Cc1cccc2cc(C3CNC(=O)c4ccccc4N3)c(=O)[nH]c12 (stereo not drawn) | 102

These compounds were tested on SK-OV-3 (assay: Growth inhibition of human SKOV3 cells assessed as cell growth at 10 uM incubated for 48 hrs by sulforhodamine B assay relative to control). Conditions: SK-OV-3, 48 h, read-out: Activity.
Format: functional

Row | SMILES | growth at 10 µM [%]
24 | Cc1cccc2cc(C3CNC(=O)c4ccccc4N3)c(=O)[nH]c12 (stereo not drawn) | 96.9

The compounds below were run on UACC-62 (assay: Growth inhibition of human UACC62 cells assessed as cell growth at 10 uM incubated for 48 hrs by sulforhodamine B assay relative to control). Conditions: UACC-62, 48 h, read-out: Activity.
Format: functional

Row | SMILES | growth at 10 µM [%]
25 | Cc1cccc2cc(C3CNC(=O)c4ccccc4N3)c(=O)[nH]c12 (stereo not drawn) | 106

The compounds below were run on SNB-19 (assay: Growth inhibition of human SNB19 cells assessed as cell growth at 10 uM incubated for 48 hrs by sulforhodamine B assay relative to control). Conditions: SNB-19, 48 h, read-out: Activity.
Format: functional

Row | SMILES | growth at 10 µM [%]
26 | Cc1cccc2cc(C3CNC(=O)c4ccccc4N3)c(=O)[nH]c12 (stereo not drawn) | 114

The compounds below were run on OVCAR-8 (assay: Growth inhibition of human OVCAR8 cells assessed as cell growth at 10 uM incubated for 48 hrs by sulforhodamine B assay relative to control). Conditions: OVCAR-8, 48 h, read-out: Activity.
Format: functional

Row | SMILES | growth at 10 µM [%]
27 | Cc1cccc2cc(C3CNC(=O)c4ccccc4N3)c(=O)[nH]c12 (stereo not drawn) | 103

What follows are compounds tested on HOP-92 (assay: Growth inhibition of human HOP92 cells assessed as cell growth at 10 uM incubated for 48 hrs by sulforhodamine B assay relative to control). Conditions: HOP-92, 48 h, read-out: Activity.
Format: functional

Row | SMILES | growth at 10 µM [%]
28 | Cc1cccc2cc(C3CNC(=O)c4ccccc4N3)c(=O)[nH]c12 (stereo not drawn) | 94.9

These compounds were tested on HT-29 (assay: Growth inhibition of human HT-29 cells assessed as cell growth at 10 uM incubated for 48 hrs by sulforhodamine B assay relative to control). Conditions: HT-29, 48 h, read-out: Activity.
Format: functional

Row | SMILES | growth at 10 µM [%]
29 | Cc1cccc2cc(C3CNC(=O)c4ccccc4N3)c(=O)[nH]c12 (stereo not drawn) | 81.3

What follows are compounds tested on HOP-62 (assay: Growth inhibition of human HOP62 cells assessed as cell growth at 10 uM incubated for 48 hrs by sulforhodamine B assay relative to control). Conditions: HOP-62, 48 h, read-out: Activity.
Format: functional

Row | SMILES | growth at 10 µM [%]
30 | Cc1cccc2cc(C3CNC(=O)c4ccccc4N3)c(=O)[nH]c12 (stereo not drawn) | 89.6

What follows are compounds tested on MDA-MB-468 (assay: Growth inhibition of human MDA-MB-468 cells assessed as cell growth at 10 uM incubated for 48 hrs by sulforhodamine B assay relative to control). Conditions: MDA-MB-468, 48 h, read-out: Activity.
Format: functional

Row | SMILES | growth at 10 µM [%]
31 | Cc1cccc2cc(C3CNC(=O)c4ccccc4N3)c(=O)[nH]c12 (stereo not drawn) | 107

Each compound was assayed on OVCAR-4 (assay: Growth inhibition of human OVCAR4 cells assessed as cell growth at 10 uM incubated for 48 hrs by sulforhodamine B assay relative to control). Conditions: OVCAR-4, 48 h, read-out: Activity.
Format: functional

Row | SMILES | growth at 10 µM [%]
32 | Cc1cccc2cc(C3CNC(=O)c4ccccc4N3)c(=O)[nH]c12 (stereo not drawn) | 92.1

These compounds were tested on NCI-H23 (assay: Growth inhibition of human NCI-H23 cells assessed as cell growth at 10 uM incubated for 48 hrs by sulforhodamine B assay relative to control). Conditions: NCI-H23, 48 h, read-out: Activity.
Format: functional

Row | SMILES | growth at 10 µM [%]
33 | Cc1cccc2cc(C3CNC(=O)c4ccccc4N3)c(=O)[nH]c12 (stereo not drawn) | 98.4
